{"source": "patent US9339486B2", "about": "“Heterocyclic modulators of cannabinoid receptors” (THE CLEVELAND CLINIC FOUNDATION, priority 2008, dated 2016)", "key": {"[1]": {"target": "rCB2 receptors (Rattus norvegicus (Rat), UniProt Q9QZN9)", "assay": "cAMP activation assay rCB2", "format": "cell-based", "method": "The compound of Example 3 was tested for agonist activity at the rat CB1 (rCB1) and rCB2 receptors, at eight concentrations, in duplicate: 10, 3, 1, 0.3, 0.1, 0.03, 0.01 and 0.001 μM. Recombinant cells grown to mid-log phase in culture media without antibiotics were detached with PBS containing 5 mM EDTA, centrifuged and resuspended in assay buffer at a concentration of 16.6×10^5 cells/ml. The test was performed in 96 well plates. For testing, 12 μl of cells ([…]) were mixed with 12 μl of agonist at increasing concentrations. […] The plates were then incubated for 30 min at room temperature. After addition of the lysis buffer, cAMP concentrations were estimated, according to the manufacturer specification, with the HTRF kit from Cis-Bio International (Catalogue number 62AM2PEB)."}, "[2]": {"system": "paclitaxel-induced neuropathy", "assay": "Prevention of neuropathy induced by paclitaxel", "format": "in vivo, rat", "conditions": "paclitaxel model", "method": "A mixture of saline and CREMOPHOR® ELP 10% was used as vehicle for paclitaxel. It was injected at a concentration of 1.0 mg/kg intraperitoneally to the chemotherapy-treated group of rats on 4 consecutive days for a final cumulative dose of 4 mg/kg to 18 rats.\nPaw withdrawal thresholds were determined daily in both hind paws of each animal using calibrated von Frey monofilaments according to an up-down procedure. A series of von Frey filaments with exponentially incremental degrees of stiffness (0.4, 0.7, 1.2, 2.0, 3.6, 5.5, 8.5, and 15.1 g) was used to measure the 50% threshold for both hindpaw withdrawal in awake, unrestrained rats. Chaplan, S. R., Quantitative assessment of tactile allodynia in the rat paw, Journal of Neuroscience Methods, 1994, 53:55-63. Brisk paw withdrawal from the pressure of a filament gently bent against the plantar surface of the paw was defined as a positive response, and absence of withdrawal within 6 sec was considered a negative response. The series of filaments touched the hindpaw in sequential ascending or descending order of stiffness until the threshold of response was crossed (allowing about 10 sec between each increment). Each time the threshold was crossed, the direction of stimulus presentation was reversed and the procedure resumed. Four responses were collected after the first threshold detection, and the 50% withdrawal thresholds was interpolated. In cases in which the response thresholds fall outside the range of detection, 15.1 and 0.25 g were assigned for continuous negative or positive responses, respectively, to the limits of stimulation. FIG. 17 and FIG. 18 show results from these experiments and that peripheral neuropathy started to develop within a few days. FIG. 18 reflects that a plateau was reached by the 10th day.\nGroup 1 of rats received paclitaxel for four days, as described immediately above in subpart (A) titled “Paclitaxel-induced Neuropathy.” In group 2, a dose of 15 mg/kg of the compound of Example 3, injected intraperitoneally was administered 30 minutes prior to the administration of paclitaxel. In group 3, vehicle of the compound of Example 3 was administered 30 min prior to the administration of paclitaxel. Paw withdrawal thresholds were determined daily in both hind paws of each animal using calibrated von Frey monofilaments according to an up-down procedure as described immediately above in subpart (A) titled “Paclitaxel-induced Neuropathy.” The results are shown in FIG. 17.\nFIGS. 19A and 19B show results from an experiment in which three groups of rats were administered 0.25 mL of the compound of Example 3 or the vehicle, a mixture of NMP, propylene glycol, chromophore ELP (25%, 25%, 10%) in sterile water 30 min prior to the administration of paclitaxel. Two of the three experimental groups continued to receive either the vehicle or the compound of Example 3 daily for 11 more days."}, "[3]": {"target": "T1, CB1 (Homo sapiens (Human), UniProt P21554)", "T1 sequence (P21554 whole entry)": "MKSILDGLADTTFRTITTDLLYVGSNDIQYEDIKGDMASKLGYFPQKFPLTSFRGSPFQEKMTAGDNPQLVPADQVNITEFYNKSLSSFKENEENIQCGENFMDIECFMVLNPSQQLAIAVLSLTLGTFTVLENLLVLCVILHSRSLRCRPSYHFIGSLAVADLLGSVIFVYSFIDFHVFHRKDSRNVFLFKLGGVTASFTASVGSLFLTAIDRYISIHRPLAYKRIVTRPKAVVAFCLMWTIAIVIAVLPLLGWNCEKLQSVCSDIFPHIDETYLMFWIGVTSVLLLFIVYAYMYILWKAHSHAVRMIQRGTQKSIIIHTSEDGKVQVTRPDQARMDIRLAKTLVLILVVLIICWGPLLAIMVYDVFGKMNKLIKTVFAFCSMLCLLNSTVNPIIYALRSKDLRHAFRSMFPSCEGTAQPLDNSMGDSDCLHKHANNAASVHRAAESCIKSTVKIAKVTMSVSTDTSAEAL", "assay": "CB1 Binding Assay ([3H]CP 55940, cell membrane homogenates)", "method": "(§1) After being incubated, the samples were filtered rapidly under vacuum through glass fiber filters (GF/B; Packard) presoaked with 0.3% PEI and rinsed several times with ice-cold buffer containing 50 mM Tris HCl (pH 7.4) and 0.5% BSA using a 96-sample cell harvester (Unifilter; Packard). The filters were dried then counted for radioactivity in a scintillation counter (Topcount; Packard) using a scintillation cocktail (Microscint 0; Packard). The results were expressed as a percentage of the inhibition of the control radioligand-specific binding. The reference standard compounds were tested in each experiment at several concentrations to obtain a competition curve from which its IC50 was calculated."}, "[4]": {"target": "T2, CB2 (Homo sapiens (Human), UniProt P34972)", "T2 sequence (P34972 whole entry)": "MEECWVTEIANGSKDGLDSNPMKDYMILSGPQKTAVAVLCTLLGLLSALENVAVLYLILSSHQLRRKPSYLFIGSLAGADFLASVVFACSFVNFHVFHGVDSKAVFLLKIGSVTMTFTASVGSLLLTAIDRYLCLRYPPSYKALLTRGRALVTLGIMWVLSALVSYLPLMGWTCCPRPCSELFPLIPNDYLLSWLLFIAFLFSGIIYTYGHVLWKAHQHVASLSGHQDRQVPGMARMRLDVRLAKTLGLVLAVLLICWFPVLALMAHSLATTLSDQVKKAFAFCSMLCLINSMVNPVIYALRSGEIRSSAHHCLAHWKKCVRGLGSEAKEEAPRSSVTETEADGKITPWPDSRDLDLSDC", "assay": "CB2 Binding Assay ([3H]WIN 55212-2, cell membrane homogenates)", "method": "as §1, with “Cell membrane homogenates (15 μg protein) were incubated for 120 min at 37° C. with 0.8 nM [3H]WIN 55212-2 (the reference standard [Munro, 1993 #1321]) in the absence or presence of the test compound in a buffer containing 50 mM HEPES/Tris HCL (pH 7.4), 5 mM MgCl2, 2.5 mM EGTA, and 0.1% BSA. Nonspecific binding was determined in the presence of 10 μM WIN 55212-2. After” for “After”"}, "[5]": {"target": "T1, CB1", "assay": "CB1/CB2 Functional Assay (GTPγ[35S]), CB1 membranes", "format": "biochemical", "method": "(§2) A dose response curve was generated at eight concentrations in duplicate on CB1 and CB2 in light of reference agonists. The reference agonists for cannabinoid receptors was CP55,940. See FIGS. 1A, 1B, 2A, 2B, 3A and 3B.\n(§3) Membranes (CB1, ES-110-MG or CB2, ES-111-MG) were mixed with GDP (volume:volume) and incubated for at least 15 min on ice. In parallel, GTPγ[^35S] were mixed with the beads (volume:volume) just before starting the reaction. The following reagents were successively added in the wells of an Optiplate: 50 μl of ligand, 20 μl of the membranes:GDP mix, 10 μl of assay buffer for agonist testing and 20 μl of the GTPγ[^35S]: beads mix. The plates were covered with a topseal, shaken on an orbital shaker for 2 min, and then incubated between 30 to 60 min. at room temperature. Then the plates were centrifuged for 10 min at 2000 rpm, incubated at room temperature between 1 to 4 hours and counted for 1 min with a PerkinElmer TopCount reader."}, "[6]": {"target": "T2, CB2", "assay": "CB1/CB2 Functional Assay (GTPγ[35S]), CB2 membranes", "format": "biochemical", "method": "as §2, §3"}, "[7]": {"system": "naïve rats", "assay": "Open field chamber testing", "format": "in vivo, rat", "conditions": "i.p.: Example 3 15 mg/kg, WIN 55,212-2 7 mg/kg, haloperidol 1 mg/kg", "method": "The automated open-field chamber (Med Associates ENV-515 Test Environment, St. Albans, Vt.) 43.2×43.2×30.5 cm (L×W×H) equipped with three pairs of 16 infrared arrays that continually monitored the animal's movement was used to determine potential CNS effects of the compound of Example 3, WIN55212-2, and haloperidol in naïve rats. Rats were individually tested 15 min after i.p. drug administration. The infrared beams were set 2.5 cm apart horizontally and at a height of 3 cm above the floor, with the rearing array set at 12 cm from the floor. The area in the box was divided into 4 equal quadrants (zones), with data collected within each quadrant and across quadrants (zone entries). An ambulatory movement was defined as a motion of at least 5 cm and was coded by quadrant. Vertical movements were counted when the rat moved vertically a minimum of 12 cm from the floor. Zone entries were defined as an entry into a zone (from another zone). Entry into a zone was counted when the rat was far enough into the zone to break 2 sets of photoelectric beams for the new zone beams during an ambulatory movement."}, "[8]": {"conditions": "CB1, test concentration 1.0E−05 (MD)"}, "[9]": {"conditions": "CB2, test concentration 1.0E−05 (MD)"}}, "data": [{"smiles": "CCCCCCC(C)(C)c1ccc([C@@H]2C[C@H](O)CC[C@H]2CCCO)c(O)c1", "note": "[CP55,940, reference compound]", "values": [{"measurement": "EC50", "setting": "[1]", "result": "1.13 ± 0.13", "unit": "nM"}]}, {"smiles": "COc1ccc2[nH]cc(CCNC(C)=O)c2c1", "note": "[Melatonin, reference compound]", "values": [{"measurement": "protection against neuropathy", "setting": "[2]", "result": "did not provide any protection"}]}, {"smiles": "CC1(Cc2ccccc2)COc2cc(C(=O)NC3CCCCC3)ccc21", "note": "(stereo not drawn) [Example 2, 3-Benzyl-3-methyl-2,3-dihydro-benzofuran-6-carboxylic acid cyclohexylamide]", "values": [{"measurement": "% Inhibition of Control Specific Binding", "setting": "[3]; [8]", "result": 68, "unit": "%"}, {"measurement": "% of Control Specific Binding Mean", "setting": "[3]; [8]", "result": 31.8, "unit": "%"}, {"measurement": "% of Control Specific Binding 1st", "setting": "[3]; CB1, test concentration 1.0E−05 (MD), first replicate", "result": 29.9, "unit": "%"}, {"measurement": "% of Control Specific Binding 2nd", "setting": "[3]; CB1, test concentration 1.0E−05 (MD), second replicate", "result": 33.8, "unit": "%"}, {"measurement": "% Inhibition of Control Specific Binding CB1", "setting": "[3]; as repeated in Table 3", "result": 68, "unit": "%"}, {"measurement": "% Inhibition of Control Specific Binding", "setting": "[4]; [9]", "result": 85, "unit": "%"}, {"measurement": "% of Control Specific Binding Mean", "setting": "[4]; [9]", "result": 14.9, "unit": "%"}, {"measurement": "% of Control Specific Binding 1st", "setting": "[4]; CB2, test concentration 1.0E−05 (MD), first replicate", "result": 21.3, "unit": "%"}, {"measurement": "% of Control Specific Binding 2nd", "setting": "[4]; CB2, test concentration 1.0E−05 (MD), second replicate", "result": 8.6, "unit": "%"}, {"measurement": "% Inhibition of Control Specific Binding CB2", "setting": "[4]; as repeated in Table 4", "result": 85, "unit": "%"}, {"measurement": "Compound Function", "setting": "[5]", "result": "Inverse"}, {"measurement": "% Activation Average", "setting": "[5]; reference agonist CP55,940", "result": "−35.79", "unit": "%"}, {"measurement": "Compound Function", "setting": "[6]", "result": "Agonist"}, {"measurement": "EC50", "setting": "[6]; read-out: EC50 (nM) for GTP Binding", "result": 479, "unit": "nM"}, {"measurement": "% Activation Average", "setting": "[6]; reference agonist CP55,940", "result": 52.94, "unit": "%"}]}, {"smiles": "Cc1c(C(=O)c2cccc3ccccc23)c2cccc3c2n1[C@H](CN1CCOCC1)CO3", "note": "[WIN 55,212-2, reference compound]", "values": [{"measurement": "exploratory behavior in the open field (distance traveled, ambulatory time, rearing, zone entries)", "setting": "[7]", "result": "decreased exploratory behavior"}]}]}
